Data as given in US5079241A, “Cephalosporin derivatives and pharmaceutical compositions in which they are present” (Sanofi, priority 1987, dated 1992).
Converted amounts (≈) assume the structure as drawn. Where two headings read alike, the source gives them in different places.

Tests used:
[1] = protein binding by comparing two standard scales in baboon plasma and phosphate buffer; type: in vitro ADME; conditions: baboon plasma vs phosphate buffer (pH 7, 0.03M)
Source text: Furthermore, the protein binding is obtained by comparing two standard scales, one being prepared in baboon plasma and the other in phosphate buffer (pH 7, 0.03M).

Providencia 155 = experiment: bacteriostatic action in vitro by the dilution method (MIC); type: cell-based; conditions: read-out: minimum inhibitory concentrations (MIC)
Experimental: (§1) The bacteriostatic action was determined in vitro by the dilution method. The study was carried out on both Gram-positive strains and Gram-negative strains.
(§2) The results for various products according to the invention, expressed as minimum inhibitory concentrations (MIC - μg/ml), are collated in Table 3.

[2] = system: Pseudomonas aeruginosa NCTC 8203; experiment: as above; type: cell-based; conditions: NCTC8203, read-out: minimum inhibitory concentrations (MIC)
Experimental: as §1, §2

Staph. aureus Smith = experiment: as above; type: cell-based; conditions: Staphylococcus aureus, read-out: minimum inhibitory concentrations (MIC)
Experimental: as §1, §2

[3] = system: Klebsiella pneumoniae R30; experiment: as above; type: cell-based; conditions: read-out: minimum inhibitory concentrations (MIC)
Experimental: as §1, §2

[4] = system: Escherichia coli SOL RL 90; experiment: as above; type: cell-based; conditions: SOLRL90, read-out: minimum inhibitory concentrations (MIC)
Experimental: as §1, §2

[5] = system: Proteus vulgaris GN 76/C-1; experiment: as above; type: cell-based; conditions: GN76, read-out: minimum inhibitory concentrations (MIC)
Experimental: as §1, §2

[6] = system: Escherichia coli C1/Col E1::Tn3; experiment: as above; type: cell-based; conditions: read-out: minimum inhibitory concentrations (MIC)
Experimental: as §1, §2

[7] = pharmacokinetic behavior in baboons, 20 mg/kg (Tables 4 and 6); type: in vivo; conditions: baboon; for Cmax: read-out: Max plasma concentration; for AUC(0-t) at 6 h: trapezium method; for concentration at 6 h / concentration at 10 min / concentration at 20 min / concentration at 0.5 h / concentration at 0.75 h / concentration at 1 h / concentration at 1.5 h / concentration at 2 h / concentration at 3 h / concentration at 4 h / concentration at 5 h / concentration at 5.5 h / dose excreted at 6 h: 20 mg/kg; for concentration at 0.5 h: 30 minutes; for concentration at 0.75 h: 45 minutes; for concentration at 1 h: 60 minutes; for concentration at 1.5 h: 90 minutes; for concentration at 2 h: 120 minutes; for concentration at 3 h: 180 minutes; for concentration at 4 h: 240 minutes; for concentration at 5 h: 300 minutes; for concentration at 5.5 h: 330 minutes; for dose excreted at 6 h: urine, 6 h (Table 6), read-out: Excretion in the urine
Experimental: Furthermore, the pharmacokinetic behavior of the products according to the invention was studied in baboons after administration at a dose of 20 mg/kg by intramuscular injection or intravenous injection.
Blood samples taken at various times after administration are used to determine the plasma concentration of the product studied by microbiological assay.
It is thus possible to construct the curve showing the plasma concentration as a function of time, and to determine different pharmacokinetic parameters of the compound studied:
the elimination half-life (t1/2 β) is calculated by the formula [formula] in which β represents the elimination gradient or slope;
the area under the curve (AUC) is determined by the trapezium method.
The plasma concentrations obtained with various products of the invention are collated in Tables 4 and 5. They are expressed in μg/ml.

[8] = plasma, 20 mg/kg (Table 6), read-out: Plasma concentration at 6 h
[9] = plasma, 360 minutes, read-out: plasma concentration

Structure (SMILES) | fraction unbound [1] | MIC (Providencia 155) | MIC [2] | MIC (Staph. aureus Smith) | MIC [3] | MIC [4] | MIC [5] | MIC [6] | Tmax ([7]; plasma, 20 mg/kg (Table 6)) | Cmax ([7]; plasma, 20 mg/kg (Table 6)) | AUC(0-t) at 6 h ([7]; plasma, 20 mg/kg (Table 6)) | concentration at 6 h [7, 8] | concentration at 10 min ([7]; plasma) | concentration at 0.5 h ([7]; plasma) | concentration at 0.75 h ([7]; plasma) | concentration at 1 h ([7]; plasma) | concentration at 1.5 h ([7]; plasma) | concentration at 2 h ([7]; plasma) | concentration at 3 h ([7]; plasma) | concentration at 4 h ([7]; plasma) | further results
CC(C)(O/N=C(\C(=O)NC1C(=O)N2C(C(=O)O)=C(COC(=O)c3ccc(NC(=O)CN)c(O)c3)CSC12)c1csc(N)n1)C(=O)O (stereo not drawn) [SR 43753, Bis-trifluoroacetate of 7-2-(2-aminothiazol-4-yl)-2-(2-carboxyprop-2-yloxyimino)acetamido]-3-[[4-(2-aminoacetyl)amino-3-hydroxybenzoyloxymethyl]-3-cephem-4-carboxylic acid, syn isomer] | 0.16 | 1 µg/mL (≈ 1.48 µM) | 2 µg/mL (≈ 2.95 µM) | 2 µg/mL (≈ 2.95 µM) | 1 µg/mL (≈ 1.48 µM) | 2 µg/mL (≈ 2.95 µM) | 0.12 µg/mL (≈ 0.177 µM) | 0.12 µg/mL (≈ 0.177 µM) | 2 h | 151 µg/mL | 703 µg·h/mL | 80.9 µg/mL | 36.8 µg/mL | 95.2 µg/mL | 129 µg/mL | 139 µg/mL | 146 µg/mL | 151 µg/mL | 126 µg/mL | 121 µg/mL | concentration at 20 min ([7]; plasma): 69.1 µg/mL; concentration at 5 h ([7]; plasma): 113 µg/mL; concentration at 5.5 h ([7]; plasma): 97.6 µg/mL; concentration at 6 h [7, 9]: 80.9 µg/mL; dose excreted at 6 h [7]: 18%
CC(C)(O/N=C(\C(=O)NC1C(=O)N2C(C(=O)O)=C(COC(=O)c3ccc(NC(=O)CCN)c(O)c3)CSC12)c1csc(N)n1)C(=O)O (centres unmarked) [SR 43904] | 0.29 | 1 µg/mL (≈ 1.45 µM) | 1 µg/mL (≈ 1.45 µM) | 4 µg/mL (≈ 5.78 µM) | 1 µg/mL (≈ 1.45 µM) | 2 µg/mL (≈ 2.89 µM) | 0.25 µg/mL (≈ 0.361 µM) | 0.25 µg/mL (≈ 0.361 µM) | 1.5 h | 94.1 µg/mL | 348 µg·h/mL | 34.3 µg/mL | 12.6 µg/mL | 52.4 µg/mL | 73 µg/mL | 76.1 µg/mL | 94.1 µg/mL | 76.1 µg/mL | 59.7 µg/mL | 57.3 µg/mL | half-life ([7]; plasma, 20 mg/kg (Table 6), read-out: t1/2 β): 4.42 h; concentration at 5 h ([7]; plasma): 53.4 µg/mL; concentration at 5.5 h ([7]; plasma): 39.9 µg/mL; concentration at 6 h [7, 9]: 34.3 µg/mL; dose excreted at 6 h [7]: 17%
CC(C)(O/N=C(\C(=O)NC1C(=O)N2C(C(=O)O)=C(COC(=O)c3ccc(NC(=O)[C@@H](N)CCCN)c(O)c3)CSC12)c1csc(N)n1)C(=O)O (some centres unmarked) [SR 44128] | 0.16 | 1 µg/mL (≈ 1.36 µM) | 2 µg/mL (≈ 2.72 µM) | 8 µg/mL (≈ 10.9 µM) | 1 µg/mL (≈ 1.36 µM) | 2 µg/mL (≈ 2.72 µM) | 0.12 µg/mL (≈ 0.163 µM) | 0.12 µg/mL (≈ 0.163 µM) | 2 h | 195 µg/mL | 898 µg·h/mL | 104 µg/mL | 62.9 µg/mL | 135 µg/mL | 177 µg/mL | 188 µg/mL | 188 µg/mL | 195 µg/mL | 169 µg/mL | 142 µg/mL | concentration at 20 min ([7]; plasma): 115 µg/mL; concentration at 5 h ([7]; plasma): 123 µg/mL; concentration at 6 h [7, 9]: 105 µg/mL; dose excreted at 6 h [7]: 72%
